These results are taken from patent US20230372307A1, “COMBINATION THERAPY USING BAX ACTIVATOR AGENT” (Albert Einstein College of Medicine, priority 2020, published 2023).

Like-named read-outs stand apart in the source and are kept apart here. Where only a bound is given, the exact number is not on record here.

For orientation: IC50 means the concentration needed to halve the response being measured. For orientation: AUC means concentration integrated over time. A word on the AUC(0-t): it is the area under the concentration-time curve up to a stated or last time point. In general, Tmax refers to the time at which the peak concentration occurs.

One series concerns the target T1, BAX (Homo sapiens, UniProt Q07812).
T1 construct: serial dilutions of full-length BAX; made in house; host or cells: Escherichia coli
The series can be described thus: BIM SAHB-BAX competition fluorescence polarization assay (FPA). The note with it: FITC-BIM SAHBA2 50 nM, BAX 500 nM. Type of series: binding. How it is done:
PRODUCTION OF RECOMBINANT BAX PROTEIN. […] BAX wild type was purified by size-exclusion chromatography in a buffer containing 20 mM HEPES pH 7.2, 150 mM KC1, 1 mM DTT. Superdex 75 10/300 GL and 200 10/300 GL (GE Healthcare) columns were used.
FLUORESCENCE POLARIZATION BINDING As SAYS. […] Firstly, direct binding isotherms were generated by incubating FITC-BIM SAHBA2 (50 nM) with serial dilutions of full-length BAX and fluorescence polarization was measured at 20 min on a F200 PRO microplate reader (TECAN). Subsequently, in competition assays, a serial dilution of small-molecule or acetylated BIM SAHBA2 (Ac-BIM SAHB) was combined with FITC-BIM SAHBA2 (50 nM), followed by the addition of recombinant protein at EC75 concentration, as determined by the direct binding assay (BAX: 500 nM). EC50 and IC50 values were calculated by nonlinear regression analysis of competitive binding curves using Graphpad Prism software.
A general note: In fluorescence polarisation assays a small probe gives low polarisation when free and higher when bound to something large.

The next series concerns SU-DHL5. The series can be described thus: Cell viability assay (CellTiter-Glo) in SU-DHL5. The note with it: Homo sapiens. The class given is cell-based. How it is done:
(§1) CELL VIABILITY ASSAY. […] Cell viability was assayed at 72 hrs by addition of CellTiter-Glo Assay reagents according to the manufacturer's protocol (Promega), and luminescence measured using a F200 PRO microplate reader (TECAN). […] Excluding high-throughput drug screenings, viability assays were performed in at least triplicate and the data normalized to 1% vehicle-treated control wells. IC50 values were determined by nonlinear regression analysis using Prism software (Graphpad). Dilutions of compounds was performed using a TECAN D300e Digital Dispenser from 10 mM stocks. The BLISS calculation was determined using the Combenefit program as previously described by Di Veroli et al., Bioinformatics.
(In general: In ATP-based viability assays light output follows the ATP content of the culture.)

For series [1] the following is noted: previously determined by Tse et al; cited from earlier work.
For the next series, the system named is solid tumor cell lines. The series can be described thus: Cell viability, solid tumor cell lines of the 46-line panel. Type of series: cell-based. The note with it: Homo sapiens, read-out: mean cell viability IC50. As for the experimental part: as §1
The test system of a further series is SW480. The series can be described thus: Cell viability (CellTiter-Glo), SW480. Type of series: cell-based, human. Particulars: SW480, 72 hrs. As for the experimental part:
as §1

The next series concerns SW480 xenograft. The series can be described thus: SW480 tumor xenograft efficacy and pharmacodynamic study. The note with it: 200 mg/kg BTSA1.2, 100 mg/kg Navitoclax, oral daily. Type of series: in vivo, nu/nu nude mice. The text has this: TUMOR XENOGRAFT STUDIES. 6-8 weeks old nu/nu nude male mice were purchased from Charles River. […] For efficacy the efficacy study, treatments started once tumors reached a volume of ˜200 mm^3. […] Body weight of mice were monitored during treatment. For the pharmacodynamic study, treatments started once tumors reached a volume of ˜400 mm^3, after 3 days of daily treatment mice were euthanized and tumors were collected for analysis. Ex-Vivo BHS PROFILING. SW480 xenograft vehicle and combination treated tumors, and COLO-1 and COLO-2 PDX tumors were analyzed by BH3 profiling under basal conditions. Single cells from tumors were isolated by mechanically pass them through a […] strainer filter with cold PBS. SW480 xenograft tumors: […] PDX tumors: […] Single cell suspensions were prepared in 1:1 JC-1-MEB buffer, as previously described, and were kept at room temperature for 10 min to allow for cell permeabilization and dye equilibration. After adding the cells to the 384-well plate, 2.0×10^4 cells/well, fluorescence was measured at 590 nm emission 545 nm excitation using the M1000 microplate reader (TECAN) at 30° C. every 15 min for a total of 2 hrs.

Series [2] is described as follows: BTSA1.2 and Navitoclax combination in vivo toxicity study. Also noted: species or system CD1-IGS mice. The note with it: 200 mg/kg BTSA1.2, 100 mg/kg Navitoclax, oral daily for 7 days. The text has this:
6-8 weeks old CD1-IGS male mice were purchased from Charles River. […] Mice were monitored daily; body weight and peripheral blood counts were monitored at the indicated days.

The target in a further series is T2, BAX:BCL-XL complexes (Homo sapiens, UniProt Q07812).
T2 construct: endogenous in cells; host or cells: BxPC-3, SW480, Calu-6
The series can be described thus: BAX co-immunoprecipitation and immunoblotting. The class given is cell-based. Particulars: 4 hrs treatment. Background: In western blotting, separated proteins are transferred to a membrane and probed.

The next series concerns U937. The series can be described thus: Cell viability (CellTiter-Glo), U937. The class given is cell-based, human. The note with it: U937, 72 hrs. As for the experimental part:
as §1

A further series concerns OCI-AML3. The series can be described thus: Cell viability (CellTiter-Glo), OCI-AML3. The class given is cell-based, human. Particulars: OCI-AML3, 72 hrs. How it is done: as §1
Another series has as its system COLO230. The series can be described thus: Cell viability (CellTiter-Glo), COLO230. Type of series: cell-based, human. The note with it: COLO230, 72 hrs. How it is done:
as §1

Series [3] relates to leukemia and lymphoma cell lines. The series can be described thus: cells. The note with it: Homo sapiens, 72 h, read-out: mean cell viability IC50. As for the experimental part: as §1
The test system of the next series is COLO-1 PDX. The series can be described thus: COLO-1 patient-derived xenograft efficacy study. Type of series: in vivo, NOD SCID mice. The note with it: 200 mg/kg BTSA1.2, 50 mg/kg Navitoclax, oral daily up to 18 days.
Series [4] in a line: Pharmacokinetic analysis of BTSA1.2 in mice. The class given is in vivo. Particulars: for AUC(0-inf): read-out: AUCinf_obs; for MRT inf: read-out: MRTINF_obs. As for the experimental part: […] […]. ICR (CD-1) male mice were fasted at least 3 hrs and water was available ad libitum before the study. Animals were housed in a controlled environment, target conditions: temperature 18-29° C., relative humidity 30 to 70%. Temperature and relative humidity were monitored daily. […] Experiments performed at […] joint Biopharmacy Laboratory.

The nature of a further series: in vivo. The note with it: both, CD1-IGS, mouse, po.
The next series relates to Calu-6 BAX KO cells. The series can be described thus: Viability and caspase 3/7 in WT and CRISPR/Cas9 BAX KO Calu-6 cells. The class given is cell-based, human. How it is done:
as §1
Assays were performed at least in triplicate.

Setting [5] is: SU-DHL-5, 72 hrs, read-out: Viability Inhibition- SU- DHL5- IC50.
[6] abbreviates: SU-DHL-5, 72 h, read-out: Viability Inhibition- SU- DHL5- IC50 (μM).
The mark [7] stands for this setting: male, ICR (CD-1), mouse, IV 1 mg/kg, mice plasma, Mean.
[8] abbreviates: male, ICR (CD-1), mouse, PO 3 mg/kg, mice plasma, Mean.

T1 sequence (Q07812 whole entry): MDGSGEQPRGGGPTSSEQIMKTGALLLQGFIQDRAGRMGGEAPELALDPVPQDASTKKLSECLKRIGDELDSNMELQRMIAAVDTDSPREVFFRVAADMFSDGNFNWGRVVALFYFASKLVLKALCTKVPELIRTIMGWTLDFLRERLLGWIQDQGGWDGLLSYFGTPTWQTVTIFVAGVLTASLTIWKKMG
T2 sequence (Q07812 whole entry, one chain of several): as the sequence (Q07812 whole entry) above
Procedure for BAX:BCL-XL complexes: Protein lysates were obtained by cell lysis in 0.2% NP-40 buffer (50 mM Tris-HCL, 150 mM NaCl, 1 mM EDTA, 10% Glycerol, 0.2% NP-40, pH 7.50) Immunoprecipitation was performed in 600 mL of 400 μg of proteins, which was precleared by centrifugation followed by exposure to 12 μL (50% slurry) protein A/G beads (Santa Cruz) at 4° C. for 30 min. […] Samples were then exposed to 20 μL (50% slurry) protein A/G beads (Santa Cruz) at 4° C. for 2 hrs and later centrifuged and washed three times with 0.2% NP-40 buffer and boiled in loading buffer (Life Technologies). […] For visualization of proteins with Odyssey Infrared Imaging System (LI-COR Biosciences) membranes were blocked in Odyssey Blocking Buffer (LI-COR Biosciences). Primary antibodies were incubated overnight at 4° C. in a 1:1,000 dilution. After washes, membranes were incubated with an IRdye800-conjugated goat anti-rabbit IgG or IRdye800-conjugated goat anti-mouse IgG secondary antibodies (LI-COR Biosciences) in a 1:10,000 and 1:20,000 dilution, respectively.
After 2 hr, FBS was supplemented to a final concentration of 10%. […] The supernatants were isolated by centrifugation at 15,000×g for 10 min and the mitochondrial pellets solubilized in NP-40 lysis buffer (50 mM Tris-HCL pH 7.4, 150 mM NaCl, 5 mM MgCl2, 1 Mm EGTA, 10% Glycerol, 0.2% NP-40). […]
Source text for COLO-1 PDX: 6-8 weeks old NOD SCID male mice were purchased from Charles River. […] PDX characterization: mice were divided into two groups COLO-1 and COLO-2 (n=3) were divided into two groups. Tumor was collected once tumor reached a volume of ˜1,000 mm^3. […] Treatments started once tumors reached a volume of ˜200 mm^3. Tumor volume was monitored every 3-4 days by caliper measurements until the cessation of the experiment when tumors reached an ethically unacceptable size or after 18 days of daily treatment (whichever came first). Body weight of mice were monitored during treatment.

`CC1=NN(c2nc(-c3ccccc3)cs2)C(=O)C1=NNc1nccs1` [Compound 3]: the results for the IC50 at BAX and in the series with SU-DHL5 (setting [5]) were 2.38 µM and more than 25 µM, respectively.

Take `CC1(C)CCC(c2ccc(Cl)cc2)=C(CN2CCN(c3ccc(C(=O)NS(=O)(=O)c4ccc(N[C@H](CCN5CCOCC5)CSc5ccccc5)c(S(=O)(=O)C(F)(F)F)c4)cc3)CC2)C1` [Navitoclax, 4-(4-{[2-(4-Chlorophenyl)-5,5-dimethyl-1-cyclohexen-1-yl]methyl}-1-pipera-zinyl)-N-[(4-{[(2R)-4-(4-morpholinyl)-1-(phenylsulfanyl)-2-butanyl]amino}-3-[(trifluoromethyl)sulfonyl]phenyl)sulfonyl]benzamide, reference compound]: the MTD in series [1] is 100 mg/kg/po. Moreover, the IC50 in the series with solid tumor cell lines (72 hrs, solid tumor cell lines) is more than 10 µM. Besides, the “single agent effect on cell viability” value with SW480 is listed as “resistant”. Further, in the series with SW480 xenograft, the tumor growth result is reported as “no significant efficacy in reducing tumor growth”. For the same compound, the “body weight, blood counts and organs” value in series [2] is “lymphocyte, white blood cell and platelet counts reached levels below normal counts upon a single treatment”. Also, the “BAX:BCL-XL complexes by BAX co-immunoprecipitation” value on BAX:BCL-XL complexes is reported as “disrupted BAX:BCL-XL complexes”.

Take `O=C(O)c1cccc(NN=C2C(=O)N(c3nc(-c4ccccc4)cs3)N=C2c2ccccc2)c1` [Compound 5]: the IC50 was found to be 0.497 µM on BAX and 2.8 µM in the series on SU-DHL5 (setting [6]).

Regarding `O=C1/C(=N\Nc2nccs2)C(c2ccccc2)=NN1c1nc(-c2ccccc2)cs1` [BTSA1], in the series with SU-DHL5 (setting [6]), the half-inhibitory concentration (IC50) came out at 0.4 µM.

As for `Cc1c(-c2ccc(N3CCc4cccc(C(=O)Nc5nc6ccccc6s5)c4C3)nc2C(=O)O)cnn1CC12CC3CC(CC(C3)C1)C2` [Compound A-1331852], the “single agent effect on cell viability” value in the series with U937 is “moderately potent as single agent”; with SW480 it was “potent”; in the series on OCI-AML3, “moderately potent as single agent”; with COLO230, “not effective”.

`CCOc1ccccc1NN=C1C(=O)N(c2nc(-c3ccccc3)cs2)N=C1C` [BAM7, reference compound]: the IC50 in the series on SU-DHL5 (setting [5]) is more than 25 µM.

As for `Cc1nc(N/N=C2\C(=O)N(c3nc(-c4ccccc4)cs3)N=C2c2ccccc2)sc1C` [BTSA1.2, 4-(2-(4,5-dimethylthiazol-2-yl)hydrazono)-5-phenyl-2-(4-phenyl-thiazol-2-yl)-2,4-dihydro-3H-pyrazol-3-one], the IC50 at BAX is 0.109 µM; in series [3], less than 3 µM; in the series with solid tumor cell lines (72 h), more than 10 µM; in the series on SU-DHL5 (setting [6]) it was 0.23 µM. For the same compound, the tumor growth result in the series with COLO-1 PDX is recorded as “some PDX showed to respond to BTSA1.2 only treatment as their tumor growth was suppressed”; in the series on SW480 xenograft it was “no significant efficacy in reducing tumor growth”. Besides, the “single agent effect on cell viability” value with SW480 was “resistant”. For the same compound, in [4] (IV 1 mg/kg, mice plasma, Mean), the CL_obs is on record as 0.282. The compound also came in with a VSS_obs in series [4] (IV 1 mg/kg, mice plasma, Mean) of 555.803. The bioavailability in series [4] (male, ICR (CD-1), mouse, plasma, 3 mg/kg, oral administration, mice, read-out: oral bioavailability (% F)) was approximately 50%; in series [4] (male, ICR (CD-1), mouse, plasma, PO 3 mg/kg vs IV 1 mg/kg, mice, read-out: F(%)), 49.2%. The Cmax in [4] (male, ICR (CD-1), mouse, plasma, 3 mg/kg, oral administration, mice, read-out: peak concentration (Cmax)) is approximately 8 µM; in series [4] (male, ICR (CD-1), mouse, IV 1 mg/kg, mice plasma, Mean, read-out: Cmax) it was 2670 ng/mL; in series [4] (male, ICR (CD-1), mouse, PO 3 mg/kg, mice plasma, Mean, read-out: Cmax), 3690 ng/mL. Also, the AUC in [4] (male, ICR (CD-1), mouse, plasma, 3 mg/kg, oral administration, mice, read-out: plasma exposure (AUC)) was approximately 100 µM·h. Also, the half-life is 24.6 h in [4] (male, ICR (CD-1), mouse, plasma, iv, 1 mg/kg, IV 1 mg/kg, mice plasma, Mean, read-out: T1/2 (converted)); 14.4 h in series [4] (male, ICR (CD-1), mouse, plasma, po, 3 mg/kg, PO 3 mg/kg, mice plasma, Mean, read-out: T1/2 (converted)); approximately 14 h in series [4] (male, ICR (CD-1), mouse, plasma, po, 3 mg/kg, oral administration, read-out: half-life (T1/2) in mouse plasma (converted)). The results for the AUC(0-t) in series [4] (setting [7]) and in series [4] (setting [8]) were 31900 ng·h/mL and 47000 ng·h/mL, respectively. Further, the Tmax in series [4] (setting [7]) was found to be 2 h; in series [4] (setting [8]) it was 3.33 h. Further, the AUC(0-inf) in series [4] (setting [7]) is 67700 ng·h/mL; in series [4] (setting [8]), 70000 ng·h/mL. Moreover, the MRT inf in [4] (setting [7]) was found to be 35.7 h; in series [4] (setting [8]), 21.7 h. In addition, the “half-life (T1/2) in mouse plasma” value in series [4] (oral administration) was approximately 15 h. In addition, the necropsy finding result (200 mg/kg BTSA1, 300 mg/kg BTSA1.2, oral gavage daily) is given as “die by kidney failure after 3 days of treatment”. Moreover, where the note is “BTSA1.2 up to 200 mg/kg oral”, the “body weights and organ histology” value is “constant body weights and organs examined were between normal histologic limits”. Also, the “dose limiting toxicity (DLT)” value (oral daily for 5 days) is recorded as 300 mg/kg. The MTD in “in vivo” stood at 200 mg/kg. Besides, in [2], the “body weight, blood counts and organs” value is “body weight and blood counts were measured in normal levels but reduction in white blood cells and lymphocytes counts was observed after repeated dosing”.

In the case of `CN[C@@H]1C[C@H]2O[C@@](C)([C@@H]1OC)n1c3ccccc3c3c4c(c5c6ccccc6n2c5c31)C(=O)NC4` [staurosporine], the “sensitivity of Calu-6 cells lacking BAX expression” value with Calu-6 BAX KO cells is recorded as “still sensitive”.
